Values joined by “and” are separate entries in the source; they are usually repeats but may differ in a detail not shown here. Equal entries are not always repeated. Inconclusive results are not listed.
Tested on: BDF1 mice, colon carcinoma 38 sc, T/C %
Test: NCI In Vivo Anticancer Drug Screen. Data for tumor model Colon Carcinoma 38 (subcutaneous) in B6D2F1 (BDF1) mice
Method: The antitumor activity of compounds was measured in mice bearing transplantable tumors. Survival or tumor size were measured and the results are expressed as the measurement made in the treated group (T) divided by the measurement made in the vehicle treated control group (C). The tumor model used in this assay is Colon Carcinoma 38 (subcutaneous) in B6D2F1 (BDF1) mice

[1] = endpoint: median tumor weight (est.), dose: 50.0 mg/kg/injection, schedule: Q07DX002 (ip), vehicle: Klucel (hydroxypropylcellulose) (HPC), higher = larger tumour
[2] = endpoint: median tumor weight (est.), dose: 100.0 mg/kg/injection, schedule: Q07DX002 (ip), vehicle: Klucel (hydroxypropylcellulose) (HPC), higher = larger tumour
[3] = endpoint: median tumor weight (est.), dose: 400.0 mg/kg/injection, schedule: Q07DX002 (ip), vehicle: Klucel (hydroxypropylcellulose) (HPC), higher = larger tumour
[4] = endpoint: median tumor weight (est.), dose: 800.0 mg/kg/injection, schedule: Q07DX002 (ip), vehicle: Klucel (hydroxypropylcellulose) (HPC), higher = larger tumour

COc1cccc2c1C(=O)c1c(O)c3c(c(O)c1C2=O)C[C@@](O)(C(C)=O)C[C@@H]3OC1CC(N(Cc2ccccc2)Cc2ccccc2)C(O)C(C)O1 (stereo partly drawn)
T/C (endpoint: median survival time, dose: 43.0 mg/kg/injection, schedule: Q07DX003 (sc), vehicle: saline with Tween-80, higher = longer survival): 152 % of control
T/C (endpoint: median survival time, dose: 69.0 mg/kg/injection, schedule: Q07DX003 (sc), vehicle: saline with Tween-80, higher = longer survival): 170 % of control
T/C (endpoint: median survival time, dose: 112.0 mg/kg/injection, schedule: Q07DX003 (sc), vehicle: saline with Tween-80, higher = longer survival): 220 % of control
T/C (endpoint: median survival time, dose: 180.0 mg/kg/injection, schedule: Q07DX003 (sc), vehicle: saline with Tween-80, higher = longer survival): 254 % of control
T/C (endpoint: median tumor weight (est.), dose: 6.75 mg/kg/injection, schedule: Q07DX002 (ip), vehicle: distilled water + Tween-80, higher = larger tumour): 108 % of control
T/C (endpoint: median tumor weight (est.), dose: 13.5 mg/kg/injection, schedule: Q07DX002 (ip), vehicle: distilled water + Tween-80, higher = larger tumour): 57 % of control
T/C (endpoint: median tumor weight (est.), dose: 27.0 mg/kg/injection, schedule: Q07DX002 (ip), vehicle: distilled water + Tween-80, higher = larger tumour): 13 % of control
T/C (endpoint: median tumor weight (est.), dose: 27.0 mg/kg/injection, schedule: Q07DX002 (ip), vehicle: saline with Tween-80, higher = larger tumour): 39 % of control and 50 % of control
T/C (endpoint: median tumor weight (est.), dose: 54.0 mg/kg/injection, schedule: Q07DX002 (ip), vehicle: saline with Tween-80, higher = larger tumour): 8 % of control
T/C (endpoint: median tumor weight (est.), dose: 108.0 mg/kg/injection, schedule: Q07DX002 (ip), vehicle: saline with Tween-80, higher = larger tumour): 3 % of control

Nc1ccc(C(=O)O)c(O)c1
T/C (endpoint: median tumor weight (est.), dose: 42.0 mg/kg/injection, schedule: Q07DX002 (ip), vehicle: saline with Tween-80, higher = larger tumour): 120 % of control
T/C (endpoint: median tumor weight (est.), dose: 84.0 mg/kg/injection, schedule: Q07DX002 (ip), vehicle: saline with Tween-80, higher = larger tumour): 89 % of control
T/C (endpoint: median tumor weight (est.), dose: 168.0 mg/kg/injection, schedule: Q07DX002 (ip), vehicle: saline with Tween-80, higher = larger tumour): 93 % of control
T/C (endpoint: median tumor weight (est.), dose: 337.0 mg/kg/injection, schedule: Q07DX002 (ip), vehicle: saline with Tween-80, higher = larger tumour): 80 % of control
T/C (endpoint: median tumor weight (est.), dose: 675.0 mg/kg/injection, schedule: Q07DX002 (ip), vehicle: saline with Tween-80, higher = larger tumour): 111 % of control

O=S(=O)(SC(S(=O)(=O)c1ccccc1)S(=O)(=O)c1ccccc1)c1ccccc1
T/C (endpoint: median tumor weight (est.), dose: 25.0 mg/kg/injection, schedule: Q07DX002 (ip), vehicle: Klucel (hydroxypropylcellulose) (HPC), higher = larger tumour): 174 % of control
T/C [1]: 199 % of control
T/C [2]: 113 % of control
T/C [3]: 115 % of control

CN(N=O)C(N)=O
T/C (endpoint: median tumor weight (est.), dose: 3.12 mg/kg/injection, schedule: Q07DX002 (ip), vehicle: saline, higher = larger tumour): 95 % of control
T/C (endpoint: median tumor weight (est.), dose: 6.0 mg/kg/injection, schedule: Q07DX002 (ip), vehicle: saline, higher = larger tumour): 93 % of control
T/C (endpoint: median tumor weight (est.), dose: 6.25 mg/kg/injection, schedule: Q07DX002 (ip), vehicle: saline, higher = larger tumour): 99 % of control
T/C (endpoint: median tumor weight (est.), dose: 6.25 mg/kg/injection, schedule: Q07DX002 (ip), vehicle: suspension in saline, higher = larger tumour): 108 % of control
T/C (endpoint: median tumor weight (est.), dose: 12.0 mg/kg/injection, schedule: Q07DX002 (ip), vehicle: saline, higher = larger tumour): 112 % of control
T/C (endpoint: median tumor weight (est.), dose: 12.5 mg/kg/injection, schedule: Q07DX002 (ip), vehicle: saline, higher = larger tumour): 78 % of control
T/C (endpoint: median tumor weight (est.), dose: 12.5 mg/kg/injection, schedule: Q07DX002 (ip), vehicle: suspension in saline, higher = larger tumour): 76 % of control
T/C (endpoint: median tumor weight (est.), dose: 25.0 mg/kg/injection, schedule: Q07DX002 (ip), vehicle: saline, higher = larger tumour): 43 % of control and 62 % of control
T/C (endpoint: median tumor weight (est.), dose: 25.0 mg/kg/injection, schedule: Q07DX002 (ip), vehicle: suspension in saline, higher = larger tumour): 55 % of control
T/C (endpoint: median tumor weight (est.), dose: 50.0 mg/kg/injection, schedule: Q07DX002 (ip), vehicle: saline, higher = larger tumour): 37 % of control
T/C (endpoint: median tumor weight (est.), dose: 50.0 mg/kg/injection, schedule: Q07DX002 (ip), vehicle: suspension in saline, higher = larger tumour): 82 % of control
T/C (endpoint: median tumor weight (est.), dose: 100.0 mg/kg/injection, schedule: Q07DX002 (ip), vehicle: suspension in saline, higher = larger tumour): 84 % of control

Cc1cc(=O)n2c3c(c4c(cc13)c(CN(C)C)cc(=O)n4C)OC2
T/C (endpoint: median tumor weight (est.), dose: 25.0 mg/kg/injection, schedule: Q07DX002 (ip), vehicle: saline with Tween-80, higher = larger tumour): 73 % of control
T/C (endpoint: median tumor weight (est.), dose: 50.0 mg/kg/injection, schedule: Q07DX002 (ip), vehicle: saline with Tween-80, higher = larger tumour): 56 % of control
T/C (endpoint: median tumor weight (est.), dose: 100.0 mg/kg/injection, schedule: Q07DX002 (ip), vehicle: saline with Tween-80, higher = larger tumour): 45 % of control

COc1cc(C)c(C2NC(=O)c3ccccc3N2)cc1C (stereo not drawn)
T/C [1]: 121 % of control
T/C [2]: 78 % of control
T/C [3]: 117 % of control
T/C [4]: 108 % of control

CN(C)c1ccc2c(SCC(=O)OCC(=O)[C@@]3(O)CC[C@H]4[C@@H]5CCC6=CC(=O)C=C[C@]6(C)[C@H]5C(=O)C[C@@]43C)c3ccc(N(C)C)cc3nc2c1
T/C [1]: 82 % of control
T/C [2]: 69 % of control
T/C (endpoint: median tumor weight (est.), dose: 200.0 mg/kg/injection, schedule: Q07DX002 (ip), vehicle: Klucel (hydroxypropylcellulose) (HPC), higher = larger tumour): 56 % of control
T/C [3]: 77 % of control
T/C [4]: 62 % of control

O=C(O)c1c2c(nc3ccccc13)Cc1ccccc1-2
T/C (endpoint: median tumor weight (est.), dose: 12.5 mg/kg/injection, schedule: Q07DX002 (ip), vehicle: water, higher = larger tumour): 121 % of control and 100 % of control
T/C (endpoint: median tumor weight (est.), dose: 100.0 mg/kg/injection, schedule: Q07DX002 (ip), vehicle: water, higher = larger tumour): 99 % of control
T/C (endpoint: median tumor weight (est.), dose: 200.0 mg/kg/injection, schedule: Q07DX002 (ip), vehicle: water, higher = larger tumour): 62 % of control

COC(=O)Nc1ccc(Cc2ccc(NC(=O)OC)cc2)cc1
T/C (endpoint: median tumor weight (est.), dose: 6.25 mg/kg/injection, schedule: Q07DX002 (ip), vehicle: saline with Tween-80, higher = larger tumour): 60 % of control
T/C (endpoint: median tumor weight (est.), dose: 400.0 mg/kg/injection, schedule: Q07DX002 (ip), vehicle: saline with Tween-80, higher = larger tumour): 87 % of control and 102 % of control
